The results in this text go back to publication PMC7461568, “Novel Cyclic Lipopeptide Antibiotics: Effects of Acyl Chain Length and Position” (International Journal of Molecular Sciences, 2020).

Where a SMILES comes first, the peptide text is derived from it. [ ]: non-standard residue; d: D form. The star is where a group is joined. 2Nal = N[C@@H](Cc1ccc2ccccc2c1)C(=O)O; Octanoyl = CCCCCCCC(=O)*; Dab = NCC[C@H](N)C(=O)O; AEEA = NCCOCCOCC(=O)O A value given as a limit tells only on which side of the number the result lay.

In one data set the test system is human erythrocytes. Description: Hemolysis of red blood cells. The settings on record: 1 h; for %H, percent hemolytic activity against red blood cells at 150 μM: human erythrocytes, 0.5% v/v RBC suspension in PBS, peptide 150 μM, 37 °C, absorbance 414 nm, melittin positive control, triplicate. The protocol:
The hemolysis experiments were performed according to the protocol described in Reference. The peptides were tested at concentrations from 2.35–150 μM, using melittin as positive control and PBS as negative control. One premade tablet of PBS was dissolved in 200 mL Milli-Q water. The solution was kept in the refrigerator for a maximum of two days. The day before the test, the positive control wells of the 96 well polypropylene plates were precoated with 150 μL of melittin 5 μM solution in PBS. The solution was prepared in Protein LoBind Eppendorf tubes. The day of the test, the solution was discarded and the wells were washed three times with 150 μL PBS. A melittin 2.50 μM solution in PBS was prepared in Protein LoBind Eppendorf tubes—500 μL for every plate to be used. The mass of the peptide needed to reach a final concentration of 300 μM (to start testing down from 150 μM) was calculated, since a volume of 500 μL was desirable. […] The peptides were dissolved in PBS and tested in triplicate.
In a 96 well polypropylene plate, 150 μL of peptide solution was transferred to three wells in Row A. Therefore, each plate could accommodate up to four peptides. A 2-fold serial dilution of the peptides was obtained by transferring 75 μL of the solutions from Row A to the corresponding wells in Row B, mixing a couple of times. From Row B, 75 μL was transferred to Row C and so on until Row G, where 75 μL was discarded after mixing. Volumes of 75 μL melittin (2.50 μM) was transferred to the positive control wells in H1–H6. Preparation of the RBC suspension: 1 mL of whole blood was transferred to a cryotube with 3 mL of PBS, and then it was gently mixed and centrifuged for 8 min at 3000 rpm. The supernatant was discarded, and the process was repeated twice; with 4 mL at 3000 rpm and 4 mL at 4000 rpm, respectively. From the final RBC pellet, 40 μL was transferred to 8 mL of PBS (multiplied by the number of test plates needed). This corresponded to a 0.5% v/v RBC suspension. The suspension was gently mixed and transferred into a CAPPOrigami reservoir. Using a multichannel pipette, 75 μL of the suspension was transferred into each well and mixed in the direction of increasing concentration. The control wells were mixed separately. The plates were covered with BioradMicroseal foil and incubated at 37 °C for 1 h. The plates (maximum two) were centrifuged for 10 min at 4000 rpm, followed by transferring of supernatant (60 μL) from each well into the corresponding wells in a clear ELISA plate. The absorbance (A) of each well was measured at λ = 414 nm using the software program Softmax(R) Pro.

A short description of data set [1]: Hydrophobicity by analytical RP-HPLC (%B at peak elution). The settings on record: chromatographic, percentage of mobile phase B at the peak elution time. It is filed as physicochemical. The text has this:
To investigate the effect of attaching fatty acids to a macrocycle, fatty acid tails of different lengths were used. When the carbon chain was elongated, the hydrophobicity of the peptide was increased gradually. Herein, the hydrophobicity is expressed as the percentage of mobile phase B at the peak elution time on an RP-HPLC system.

`CCCCCCCC(=O)NCC[C@@H]1NC(=O)[C@H](CCN)NC(=O)[C@H](CCCNC(=N)N)NC(=O)[C@H](Cc2ccc3ccccc3c2)NC(=O)[C@H](CCN)NC(=O)[C@H](CC(N)=O)NC(=O)[C@H](CCN)NC(=O)[C@H](Cc2ccc3ccccc3c2)NC(=O)COCCOCCNC1=O` [(C8)^5] (cyclo([Dab][2Nal]R[Dab][Dab](Octanoyl)[AEEA][2Nal][Dab]N)): the “%H, percent hemolytic activity against red blood cells at 150 μM” value in the data set on human erythrocytes was 42%; in the data set with human erythrocytes (listed as (C8)^7) it was 56%. Besides, the “HD50 (hemolysis)” value in the data set on human erythrocytes (red cells of human) was > 150 µM. The “%B at peak of elution in analytical HPLC (hydrophobicity)” value in data set [1] is on record as 69%; in data set [1] (listed as (C8)^7) it was 71%.
